Assay results reported in patent US20110003689A1, “USE OF POLYMERIC GUANIDINE DERIVATIVES FOR THE CONTROL OF UNWANTED MICROORGANISMS IN CROP PROTECTION” (AKA TECHNOLOGY GMBH, priority 2007, published 2011).
Structures can show the parent of a compound that is named as a salt. Where two headings read alike, the source gives them in different places.

Legend:
Venturia inaequalis = assay: Venturia test (apple)/protective, combinations (Example L)
Protocol: After the spray coating has dried on, the plants are inoculated with an aqueous conidia suspension of the apple scab pathogen Venturia inaequalis and then remain in an incubation cabin at about 20° C. and 100% relative atmospheric humidity for 1 day. The plants are then placed in a greenhouse at about 21° C. and a relative atmospheric humidity of about 90%. Evaluation is carried out 10 days after inoculation.

[1] = tested on: Blumeria graminis f. sp. hordei; assay: Blumeria graminis test (barley)/curative (Example P); type: in vivo; conditions: 168 h, read-out: Efficacy in % found
Plasmopara viticola = assay: Plasmopara test (grapevine)/protective, combinations (Example K); type: in vivo
Phytophthora infestans = type: in vivo
Leptosphaeria nodorum [2] = assay: Leptosphaeria nodorum test (wheat)/curative (Example R); type: in vivo; conditions: 62.5 ppm
Botrytis cinerea = assay: Botrytis test (bean)/protective (Example N)
Protocol: After the spray coating has dried on, 2 small pieces of agar colonized by Botrytis cinerea are placed onto each leaf. The inoculated plants are placed in a dark chamber at about 20° C. and 100% relative atmospheric humidity. 2 days after the inoculation, the size of the infected areas on the leaves is evaluated.

Pyrenophora teres = Pyrenophora teres test (barley)/curative (Example U); type: in vivo
Alternaria solani = assay: Alternaria test (tomato)/protective, combinations (Example M); type: in vivo
Fusarium graminearum = type: in vivo; conditions: 500 ppm
Puccinia triticina = Puccinia triticina test (wheat)/curative (Example T); type: in vivo
Leptosphaeria nodorum [3] = assay: Leptosphaeria nodorum test (wheat)/protective (Example Q); type: in vivo; conditions: 62.5 ppm
[4] = tested on: Blumeria graminis f. sp. hordei; assay: Blumeria graminis test (barley)/protective (Example O); type: in vivo; conditions: 125 ppm
Protocol: [table] […] Evaluation is carried out 7 days after inoculation.

[5] = Alternaria solani, 72 h, read-out: Efficacy in % found

## CC(C)(C)C(O)C(Oc1ccc(-c2ccccc2)cc1)n1cncn1 (centres unmarked) [(B-3) bitertanol, bitertanol]
Venturia inaequalis; 2.5 ppm
  Efficacy in % found: 63%
[1]; 500 ppm
  pest or weed control at 500 ppm: 63%

## CCCOC(=O)NCCCN(C)C [(G-35) propamocarb hydrochloride, propamocarb hydrochloride]
Plasmopara viticola; 400 ppm
  Efficacy in % found: 0%
Phytophthora infestans; 100 ppm
  Efficacy in % found: 0%

## COc1ccc(C(=CC(=O)N2CCOCC2)c2ccc(Cl)cc2)cc1OC [(G-16) dimethomorph, dimethomorph]
Plasmopara viticola; 1 ppm
  Efficacy in % found: 0%

## CCNC(=O)NC(=O)/C(C#N)=N/OC [(G-73) cymoxanil, cymoxanil]
Plasmopara viticola; 50 ppm
  Efficacy in % found: 0%

## CO/C=C(/C(=O)OC)c1ccccc1Oc1cc(Oc2ccccc2C#N)ncn1 [(D-4) azoxystrobin, azoxystrobin]
Leptosphaeria nodorum [2]
  Efficacy in % found: 60%

## CC1(C(=O)Nc2ccc(O)c(Cl)c2Cl)CCCCC1 [(B-16) fenhexamid, fenhexamid]
Botrytis cinerea; 2.5 ppm
  Efficacy in % found: 0%

## CC(C)NC(=O)N1CC(=O)N(c2cc(Cl)cc(Cl)c2)C1=O [(G-31) iprodione, iprodione]
Botrytis cinerea; 12.5 ppm
  Efficacy in % found: 11%

## Cc1cc(C)nc(Nc2ccccc2)n1 [(G-10) pyrimethanil, pyrimethanil]
Botrytis cinerea; 12.5 ppm
  Efficacy in % found: 13%

## CC(C)C1C2CCC1c1c(NC(=O)c3cn(C)nc3C(F)F)cccc12 (centres unmarked) [(C-41) isopyrazam, 3-(difluoromethyl)-1-methyl-N-[1,2,3,4-tetrahydro-9-(1-methylethyl)-1,4-methanonaphthalen-5-yl]-1H-pyrazole-4-carboxamide]
[1]
  pest or weed control at 500 ppm: 78%

## CCO[PH](=O)O [(G-86) fosetyl-Al, fosetyl-Al]
Plasmopara viticola; 200 ppm
  Efficacy in % found: 0%

## Fc1ccc([C@]2(Cn3cncn3)O[C@H]2c2ccccc2Cl)cc1 (racemic) [(B-12) epoxiconazole, epoxiconazole]
Pyrenophora teres; 500 ppm
  Efficacy in % found: 78%

## OC(Cc1ccccc1Cl)(Cn1nc[nH]c1=S)C1(Cl)CC1 (centres unmarked) [(B-41) prothioconazole, prothioconazole]
Pyrenophora teres; 125 ppm
  Efficacy in % found: 78%
Alternaria solani; [5]
  pest or weed control at 5 ppm: 1%

## propineb [(F-24) propineb]
Plasmopara viticola; 100 ppm
  Efficacy in % found: 51%
Phytophthora infestans; 100 ppm
  Efficacy in % found: 15%

## CC1COC(Cn2cncn2)(c2ccc(Oc3ccc(Cl)cc3)cc2Cl)O1 (centres unmarked) [(B-7) difenoconazole, difenoconazole]
[1]
  pest or weed control at 250 ppm: 78%

## N#Cc1c(Cl)c(Cl)c(Cl)c(C#N)c1Cl [(F-4) chlorothalonil, chlorothalonil]
Pyrenophora teres; 1000 ppm
  Efficacy in % found: 30%

## O=C(Nc1ccccc1-c1ccc(Cl)cc1)c1cccnc1Cl [(C-3) boscalid, boscalid]
Venturia inaequalis; 5 ppm
  Efficacy in % found: 36%

## Cc1nn(C)c(F)c1C(=O)Nc1ccccc1C(C)CC(C)C (centres unmarked) [(C-14), N-[2-(1,3-dimethylbutyl)phenyl]-5-fluoro-1,3-dimethyl-1H-pyrazole-4-carboxamide]
Alternaria solani; [5]
  pest or weed control at 2.5 ppm: 0%
[1]
  pest or weed control at 250 ppm: 67%

## CCCN(CCOc1c(Cl)cc(Cl)cc1Cl)C(=O)n1ccnc1 [(B-39) prochloraz, prochloraz]
Fusarium graminearum
  Efficacy in % found: 63%

## CO/N=C(/C1=NOCCO1)c1ccccc1Oc1ncnc(Oc2ccccc2Cl)c1F [(D-8) fluoxastrobin, fluoxastrobin]
Alternaria solani; [5]
  pest or weed control at 5 ppm: 35%
[1]; 500 ppm
  pest or weed control at 500 ppm: 78%

## O=[N+]([O-])c1cc(C(F)(F)F)c(Cl)c([N+](=O)[O-])c1Nc1ncc(C(F)(F)F)cc1Cl [(G-64) fluazinam, fluazinam]
Plasmopara viticola; 5 ppm
  Efficacy in % found: 0%

## C=CCOC(Cn1ccnc1)c1ccc(Cl)cc1Cl (centres unmarked) [(B-26) imazalil, imazalil]
Puccinia triticina; 500 ppm
  Efficacy in % found: 83%

## N#Cc1c[nH]cc1-c1cccc2c1OC(F)(F)O2 [(G-60) fludioxonil, fludioxonil]
Pyrenophora teres; 250 ppm
  Efficacy in % found: 78%

## COC(=O)N(OC)c1ccccc1COc1ccn(-c2ccc(Cl)cc2)n1 [(D-13) pyraclostrobin, pyraclostrobin]
Leptosphaeria nodorum [3]
  Efficacy in % found: 94%
Alternaria solani; [5]
  pest or weed control at 5 ppm: 49%

## CCCCCCCCCCCCCN1CC(C)OC(C)C1 (centres unmarked) [(B-52) tridemorph, tridemorph]
[1]
  pest or weed control at 250 ppm: 75%

## OP(O)O [(G-101) phosphorous acid, phosphorous acid]
Plasmopara viticola; 400 ppm
  Efficacy in % found: 30%

## CC(C)(C)C(O)(CCc1ccc(Cl)cc1)Cn1cncn1 (centres unmarked) [(B-47) tebuconazole, tebuconazole]
Pyrenophora teres; 250 ppm
  Efficacy in % found: 60%
Alternaria solani; [5]
  pest or weed control at 5 ppm: 29%

## CSC1=N[C@@](C)(c2ccccc2)C(=O)N1Nc1ccccc1 [(D-2) fenamidone, fenamidone]
Plasmopara viticola; 1 ppm
  Efficacy in % found: 19%

## CC(C)[C@H](NC(=O)O)C(=O)N[C@H](C)c1nc2ccc(F)cc2s1 [(G-15) benthiavalicarb, benthiavalicarb]
Phytophthora infestans; 0.5 ppm
  Efficacy in % found: 23%

## CON=C(C(=O)OC)c1ccccc1CON=C(C)c1cccc(C(F)(F)F)c1 [(D-15) trifloxystrobin, trifloxystrobin]
Puccinia triticina; 500 ppm
  Efficacy in % found: 83%
Alternaria solani; [5]
  pest or weed control at 5 ppm: 40%

## O=C(NCc1ncc(C(F)(F)F)cc1Cl)c1c(Cl)cccc1Cl [(E-6) fluopicolide, fluopicolide]
Phytophthora infestans; 2 ppm
  Efficacy in % found: 9%

## Cc1ccc(C(C)NC(=O)[C@@H](NC(=O)OC(C)C)C(C)C)cc1 (some centres unmarked) [(G-18) iprovalicarb, iprovalicarb]
Plasmopara viticola; 0.5 ppm
  Efficacy in % found: 0%
Phytophthora infestans; 2 ppm
  Efficacy in % found: 30%

## COCC(=O)N(c1c(C)cccc1C)[C@H](C)C(=O)OC [(G-55) metalaxyl-M, metalaxyl-M]
Phytophthora infestans; 2.5 ppm
  Efficacy in % found: 10%

## Cn1cc(C(=O)Nc2ccccc2OC(F)(F)C(F)F)c(C(F)F)n1 [(C-19), 3-(difluoromethyl)-1-methyl-N-[2-(1,1,2,2-tetrafluoroethoxy)phenyl]-1H-pyrazole-4-carboxamide]
Venturia inaequalis; 5 ppm
  Efficacy in % found: 35%
[4]
  Efficacy in % found: 78%

## CCCN(CC)CC1COC2(CCC(C(C)(C)C)CC2)O1 (centres unmarked) [(B-46) spiroxamine, spiroxamine]
Puccinia triticina; 1000 ppm
  Efficacy in % found: 40%

## O=C(NCCc1ncc(C(F)(F)F)cc1Cl)c1ccccc1C(F)(F)F [(C-6) fluopyram, N-{2-[3-chloro-5-(trifluoromethyl)pyridin-2-yl]ethyl}-2-(trifluoromethyl)benzamide]
Alternaria solani; [5]
  pest or weed control at 2.5 ppm: 23%

## Cn1cc(C(=O)Nc2ccc(F)cc2-c2ccc(Cl)c(Cl)c2)c(C(F)F)n1 [(C-2) bixafen, N-(3′,4′-dichloro-5-fluoro-1,1′-biphenyl-2-yl)-3-(difluoromethyl)-1-methyl-1H-pyrazole-4-carboxamide]
Alternaria solani; Alternaria solani, 72 h, 1.25 ppm, read-out: Efficacy in % found
  pest or weed control at 1.25 ppm: 49%
[1]; 500 ppm
  pest or weed control at 500 ppm: 63%

## CC(C)CC(C)c1sccc1NC(=O)c1cn(C)nc1C(F)(F)F (centres unmarked) [(C-12) penthiopyrad, penthiopyrad]
Venturia inaequalis; 5 ppm
  Efficacy in % found: 60%
[1]
  pest or weed control at 250 ppm: 88%

## mancozeb [(F-20) mancozeb]
Plasmopara viticola; 100 ppm
  Efficacy in % found: 5%
Alternaria solani; 50 ppm
  Efficacy in % found: 31%
Phytophthora infestans; 25 ppm
  Efficacy in % found: 20%
